Measurements reported in patent publication US5643923A, “Quinuclidinyloxy-isoxazole compounds and their therapeutic uses” (Sankyo Company, Limited, priority 1990, dated 1997).
Where a name gives a salt, the structure may show the parent alone. Read-outs that look alike come from different tables or passages of the source.

Legend:
[1] = test system: reserpine-induced ptosis in mice; assay: Anti-reserpine effect: antagonistic effect against reserpine-induced ptosis; type: in vivo, mouse (ddY strain); details: for Maximum inhibition rate (%): reserpine 2 mg/kg s.c., 90 minutes
Text: It is considered that the sedation caused by the administration of reserpine or tetrabenazine to mice or rats produces an effect similar to the symptoms of clinical depression. Of the various pharmacological effects caused by these compounds, ptosis (drooping of the upper eyelid) and a reduction in body temperature have been widely used as indices of their activity, and it has been shown that any compound which inhibits either ptosis or lowering of the body temperature will also be active against the symptoms of clinical depression. Therefore, anti-reserpine or anti-tetrabenazine effects have been widely used for a long time as a method of screening for antidepressants. The test index used for the evaluation of the compounds of the present invention is the antagonistic effect of a test compound against reserpine-induced ptosis in mice.
The test animals employed were mature male mice of the ddY strain, 4 weeks old and each weighing 22 to 27 g. The animals were divided into groups, each including 3 mice. The compound under test was dissolved or suspended in an appropriate solvent [either physiological saline or a 0.5% CMC (carboxymethyl cellulose) solution] and administered orally to the mice of the test groups in the dose specified in the following Table 6. The mice in a control group were given only the solvent without any active compound, administered in a similar way. Immediately after administration,2 mg/kg of reserpine were administered subcutaneously to every mouse. After 90 minutes, it was determined how much the eyelids had closed (degree of ptosis) by bringing the mouse out of its cage and observing the shape of the eye.
From the scores obtained, the inhibition rate at each dose level was calculated from the following equation: [formula]

[2] = molecular target: T1, M2 receptors (Rattus norvegicus, UniProt P10980); assay: biochemical; type: binding
T1 sequence (P10980 1-466): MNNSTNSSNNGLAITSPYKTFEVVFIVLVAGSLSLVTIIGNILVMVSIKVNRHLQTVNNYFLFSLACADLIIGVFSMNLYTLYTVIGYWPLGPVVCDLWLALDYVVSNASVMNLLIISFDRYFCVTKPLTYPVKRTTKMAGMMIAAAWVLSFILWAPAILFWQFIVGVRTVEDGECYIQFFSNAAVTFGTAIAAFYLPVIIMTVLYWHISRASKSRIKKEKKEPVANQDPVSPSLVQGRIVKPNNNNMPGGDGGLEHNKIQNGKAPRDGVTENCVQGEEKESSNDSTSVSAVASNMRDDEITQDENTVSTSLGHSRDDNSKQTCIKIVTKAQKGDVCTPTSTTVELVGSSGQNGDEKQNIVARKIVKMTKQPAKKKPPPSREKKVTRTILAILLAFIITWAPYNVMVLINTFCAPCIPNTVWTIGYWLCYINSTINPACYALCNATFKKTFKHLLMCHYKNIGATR

[3] = molecular target: T2, M1 receptors (Rattus norvegicus, UniProt P08482); assay: biochemical; type: binding
T2 sequence (P08482 1-460): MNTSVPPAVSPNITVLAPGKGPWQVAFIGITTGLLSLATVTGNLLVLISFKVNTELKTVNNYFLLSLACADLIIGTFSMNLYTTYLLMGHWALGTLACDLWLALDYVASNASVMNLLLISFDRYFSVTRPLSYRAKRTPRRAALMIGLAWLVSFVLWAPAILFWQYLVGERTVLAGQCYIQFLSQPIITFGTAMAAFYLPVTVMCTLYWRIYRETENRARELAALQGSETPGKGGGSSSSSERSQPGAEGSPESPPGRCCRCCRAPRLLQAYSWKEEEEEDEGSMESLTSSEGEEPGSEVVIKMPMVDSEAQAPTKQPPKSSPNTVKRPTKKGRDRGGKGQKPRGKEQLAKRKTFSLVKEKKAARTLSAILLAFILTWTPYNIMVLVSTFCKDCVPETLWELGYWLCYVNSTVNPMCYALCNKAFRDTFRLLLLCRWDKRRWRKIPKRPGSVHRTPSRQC

[4] = molecular target: T3, 5-HT3 receptors (Rattus norvegicus, UniProt P35563); assay: biochemical; type: binding
T3 sequence (P35563 24-483): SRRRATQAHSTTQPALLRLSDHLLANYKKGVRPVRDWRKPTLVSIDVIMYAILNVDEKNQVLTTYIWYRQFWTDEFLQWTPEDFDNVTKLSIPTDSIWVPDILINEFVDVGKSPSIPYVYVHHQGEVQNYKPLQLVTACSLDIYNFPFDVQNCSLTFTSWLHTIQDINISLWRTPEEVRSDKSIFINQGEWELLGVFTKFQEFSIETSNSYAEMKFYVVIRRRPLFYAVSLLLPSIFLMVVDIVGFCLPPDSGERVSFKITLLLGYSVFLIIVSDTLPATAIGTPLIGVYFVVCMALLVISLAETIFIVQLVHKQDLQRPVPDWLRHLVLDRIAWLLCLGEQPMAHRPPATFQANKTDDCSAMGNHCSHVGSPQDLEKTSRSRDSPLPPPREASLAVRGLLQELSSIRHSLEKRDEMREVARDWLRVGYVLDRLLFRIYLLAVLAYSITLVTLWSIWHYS
Procedure: A membranous fraction prepared from the cerebral cortex of rats was incubated with the test compound and with ^3 H-GR65630 (to a final concentration of 1 nM, as a ligand to the 5-HT3 receptors) at 37° C. for 45 minutes. At the end of this time, the samples were filtered. The ^3 H radioactivity bound to the filter paper was determined by a scintillation counter as in Experiment 1.

[5] = test system: mice; assay: Acute toxicity; type: in vivo, mouse; details: 75 mg/kg, 5 days observation
Procedure: Each of the compounds of Examples 3 and 4 was suspended in a 0.5% CMC solution, and the suspension was administered to mice in an amount sufficient to provide a dose of active compound of 75 mg/kg.

[6] = test system: isolated guinea pig ileum (selective 5-HT3 agonist 2-methyl-5-HT); assay: Effects upon the isolated guinea pig ileum: inhibition of contraction by 2-methyl-5-HT; details: for Inhibition (%): 10^-6 M, contractile force by 2-methyl-5-HT, 30 minutes after addition
Procedure: The ileum isolated from a guinea pig was hung in a Magnus cup filled with Tyrode's solution. The contractile force exerted by the ileum on the application of a selective 5-HT3 agonist, 2-methyl-5-HT, was determined using an isometric transducer. A test compound was then added to the bath and the contractile force was again measured 30 minutes after the addition. The inhibition rate on the contractile force was calculated.

[7] = test system: blood viscosity increase resulting from cerebral ischemia; assay: Inhibition of blood viscosity increase resulting from cerebral ischemia; type: in vivo, rat (Wistar strain); details: oral; one hour after carotid ligation; shear 37.5, 75, 150 and 375/sec
Procedure: The test animals used were adult male rats of the Wistar strain. Each rat was administered orally either a solution of 3-(3-quinuclidinyloxy)isoxazole hydrochloride (the compound prepared as described in Example 4) in suspension in a 0.5% CMC vehicle or the vehicle itself. Immediately after administration, 40 mg/kg of pentobarbital was administered intraperitoneally for anesthesia. The rat was fixed at the dorsal position, and 0.6 ml of a blood sample was taken from the common jugular vein on one side. The viscosity of each sample was measured using a viscometer (Biorheolyzer, a trade name for product of Tokyo Keiki) at shear values of 37.5/sec, 75/sec, 150/sec and 375/sec. 0.5 ml of blood was then taken from the other side and its viscosity was measured in the same way.
After the first two samples had been taken, the carotid arteries on both sides of each animal were ligated. One hour after ligation, in the case of the control animals (administered only the vehicle), the blood viscosity values had increased by between 5 and 20% at every shear rate (the slower the shear rate, the higher the viscosity).

[8] = 3H-pirenzepine 1 nM, rat cerebral cortex membrane, 30° C., 60 minutes, read-out: IC50 Pirenzp (a) (cerebral cortex)
[9] = ratio IC50 QNB (heart) / IC50 Pirenzp (cerebral cortex)
[10] = 3H-GR65630 1 nM, rat cerebral cortex membrane, 37° C., 45 minutes

Cc1cc(OC2CN3CCC2CC3)no1.Cl (stereo not shown) [Example A4, 5-Methyl-3-(3-quinuclidinyloxy)isoxazole hydrochloride]
Assessment ([1]; 30 mg/kg po): ± (from 41% to 70%)
Maximum inhibition rate (%) ([1]; 30 mg/kg po): 45%
Assessment ([1]; 100 mg/kg po): + (inhibition rates not less than 71%)
Maximum inhibition rate (%) ([1]; 100 mg/kg po): 80%

CC1OC2(CS1)CN1CCC2CC1 (stereo not shown) [Example B3]
IC50 ([2]; 3H-quinuclidinyl benzylate 0.12 nM, rat heart membrane, 30° C., 120 minutes, read-out: IC50 QNB (b) (heart)): 14000 nM
IC50 [3, 8]: 3600 nM

CCN1C(=O)CC2(CCN(C)CC2)C1=O [Example B2]
IC50 ([2]; read-out: IC50 QNB (b) (heart)): 21000 nM
IC50 [3, 8]: 3100 nM
M1 selectivity (b)/(a) [3, 9]: 6.8

CN1CCC(Oc2noc3ccc(Cl)cc23)CC1.Cl [Example A1, 5-Chloro-3-(1-methyl-4-piperidyloxy)-1,2-benzisoxazole hydrochloride]
IC50 ([2]; read-out: IC50 QNB (b) (heart)): 41000 nM
IC50 [3, 8]: 1900 nM
M1 selectivity (b)/(a) [3, 9]: 22

Clc1c(OC2CCCNC2)noc1-c1ccccc1 (stereo not shown) [Example A8, 4-Chloro-5-phenyl-3-(3-piperidyloxy)isoxazole hydrochloride]
IC50 [4, 10]: 260 nM

Cc1onc(OC2CN3CCC2CC3)c1Cl.Cl (stereo not shown) [Example A2, 4-Chloro-5-methyl-3-(3-quinuclidinyloxy)isoxazole hydrochloride]
Assessment ([1]; 3 mg/kg po): - (not more than 40%)
Maximum inhibition rate (%) ([1]; 3 mg/kg po): 60%
Assessment ([1]; 30 mg/kg po): + (inhibition rates not less than 71%)
Maximum inhibition rate (%) ([1]; 30 mg/kg po): 100%
adverse symptoms [5]: nor did the mice exhibit any adverse symptoms
deaths [5]: no deaths were observed

Cc1nccn1CC1CCc2c(c3ccccc3n2C)C1=O (stereo not shown) [Example B5, Ondansetron, reference compound]
Inhibition (%) [6]: 79%

Clc1ccc2onc(OC3CN4CCC3CC4)c2c1 (stereo not shown) [Example A6, 5-Chloro-3-(3-quinuclidinyloxy)-1,2-benzisoxazole]
IC50 [4, 10]: 180 nM

O=C1CCCN1CC#CCN1CCCC1 [Example B1, Oxotremorine]
IC50 [2]: 1200 nM
IC50 [3]: 1300 nM
M1 selectivity (b)/(a) [3]: 0.9

Cl.Clc1c(OC2CN3CCC2CC3)noc1-c1ccccc1 (stereo not shown) [Example A5, 4-Chloro-3-(3-quinuclidinyloxy)-5-phenylisoxazole hydrochloride]
5-HT3 antagonist activity (in words) [6]: as potent an antagonist as ondansetron
Inhibition (%) [6]: 82%
IC50 [4]: 220 nM

Clc1ccc(-c2cc(OC3CN4CCC3CC4)no2)cc1 (stereo not shown) [Example A7, 5-(p-Chlorophenyl)-3-(3-quinuclidinyloxy)isoxazole hydrochloride]
IC50 [4]: 320 nM

Cl.c1cc(OC2CN3CCC2CC3)no1 (stereo not shown) [Example A3, 3-(3-Quinuclidinyloxy)isoxazole hydrochloride]
Assessment ([1]; 1 mg/kg po): - (not more than 40%)
Maximum inhibition rate (%) ([1]; 1 mg/kg po): 21%
Assessment ([1]; 3 mg/kg po): ± (from 41% to 70%)
Maximum inhibition rate (%) ([1]; 3 mg/kg po): 57%
Assessment ([1]; 10 mg/kg po): + (inhibition rates not less than 71%)
Maximum inhibition rate (%) ([1]; 10 mg/kg po): 86%
Assessment ([1]; 30 mg/kg po): + (inhibition rates not less than 71%)
Maximum inhibition rate (%) ([1]; 30 mg/kg po): 100%
inhibition of blood viscosity increase [7]: the increase was significantly inhibited at every shear rate
adverse symptoms [5]: nor did the mice exhibit any adverse symptoms
deaths [5]: no deaths were observed

c1csc(-c2cc(OC3CN4CCC3CC4)no2)c1 (stereo not shown) [Example A9, 3-(3-Quinuclidinyloxy)-5-(2-thienyl)isoxazole hydrochloride]
IC50 [4]: 150 nM
